Measurements: US20250339531A1, “DUX4 POLYPEPTIDES AND NUCLEIC ACIDS FOR TREATING INFLAMMATORY AND AUTOIMMUNE CONDITIONS” (Fred Hutchinson Cancer Center, priority 2021, published 2025)
Entries after “also recorded” stand apart in the source; their conditions may differ.

Legend:
[1] = test system: immunoproteasome subunits PSMB8, PSMB9, and PSMB10; assay: Immunoblot of IFNG-induced immunoproteasome subunits; format: cell-based, human; details: for suppression of IFNG-induced immunoproteasome subunit protein, pulsed protocol / suppression of IFNG-induced immunoproteasome subunit protein, continuous protocol: MB135 cells; for suppression of IFNG-induced immunoproteasome subunit protein, pulsed protocol: 4 h doxycycline pulse, later IFNG 16 h; for suppression of IFNG-induced immunoproteasome subunit protein, continuous protocol: doxycycline 20 h, IFNG last 16 h
Procedure: (§1) In the “continuous” protocol (similar to the experiments shown in the prior FIGS. 1, 2, 4, 5, and 6), doxycycline is added to induce DUX4 expression at time 0 and four hours later IFNG is added for an additional 16 hours, resulting in 20 hours of continuous DUX4 induction with the last 16 hrs exposed to IFNG.
(§2) In the “pulsed” protocol, doxycycline is added at time 0 to induce DUX4 expression, but after four hours the media is changed to remove the doxycycline, resulting in a pulse of DUX4 mRNA and protein sufficient to induce DUX4 target gene expression (see Resnick et al., Cell Rep. 2019 Nov. 12; 29(7):1812-1820.e5). IFNG is added at 28 hours for a period of 16 hours prior to harvesting the cells. […] This difference is not likely to be due to different amounts of the DUX4 and mutant DUX4 proteins because at the time of harvest both DUX4 and the F67A mutant DUX4 protein levels have declined to similarly low amounts relative to the continuous protocol, but could be due to the activation of DUX4 target genes by the full-length DUX4 since the H3.X/Y proteins show persistent expression in the pulsed protocol.
(§3) Protein samples were harvested in RIPA buffer [150 mM NaCl, 1% NP-40, 0.5% Na-deocycholate, 1% SDS, 25 mM Tris-HCl pH7.4] supplemented with protease and phosphatase inhibitor tablets (Pierce), followed by sonication in Diagenode Bioruptor. Lysate was cleared by centrifugation at 16000×g and quantified using a Pierce BCA assay (Thermo Fisher Scientific). Samples were run on NuPAGE precast polyacrylamide gels (Invitrogen) and transferred to PVDF membrane. Membranes were blocked in PBS containing 0.1% Tween-20 and 5% non-fat dry milk before overnight incubation at 4° C. with primary antibodies (see resource table for a list of antibodies used in this study). Membranes were incubated with horseradish peroxidase-conjugated secondary antibodies for 1 hour at room temperature and SuperSignal chemiluminescent substrate (Thermo Scientific) was used for detection on film with a Mini-medical 90 processor. Membranes were stripped with Restore Western Blot Stripping Buffer (Pierce).

[2] = test system: MHC class I proteins (HLA-A/B/C); assay: Immunoblot of IFNG-induced MHC class I protein, continuous or pulsed protocol, MB135 myoblasts; format: cell-based, human; details: MB135 cells; for suppression of IFNG-induced MHC class I protein, pulsed protocol: 4 h doxycycline pulse, IFNG added later for 16 h; for suppression of IFNG-induced MHC class I protein, continuous protocol: doxycycline 20 h, IFNG last 16 h
Procedure: as §1, §2, §3

[3] = test system: de novo protein synthesis; assay: HPG Click-iT labeling of nascent proteins; format: cell-based, human; details: MB135-iDUX4ca myoblasts, 20-96 hours after a pulse
Procedure: Cells were incubated for 30 minutes in DMEM or RPMI media depleted for methionine and cysteine (Gibco), followed by a 1-hour incubation in methionine-depleted media supplemented with 200 μM HPG (Sigma). Cells were fixed with 4% paraformaldehyde (Electron Microscopy Sciences) diluted in PBS for 10 minutes at room temperature and stained with Click-iT HPG Alexa Fluor 488 Protein Synthesis Assay Kit (Invitrogen) according to manufacturer's protocol.

STAT1 = assay: Anti-FLAG co-immunoprecipitation and western blot for STAT1; format: binding, human; details: anti-FLAG IP from MB135 cells ± IFNG
Procedure: Centrifugation at 2500 rcf at 4° C. for 5 min pelleted the nuclei, supernatant was discarded, and nuclei resuspended in 1 mL IP buffer pH 7.4 (25 mM Tris-HCl pH 7.5, 175 mM NaCl, 1 mM EDTA, 0.2% NP-40, 5% glycerol) and incubated for 1 hour at 4° C. with rotation then spun at 21000 rcf for 10 minutes at 4° C. to pellet insoluble debris. Protein concentration was determined using the Pierce BCA Protein Assay Kit (ThermoFisher, 23225). An equivalent amount of protein per sample was pre-cleared with Dynabeads Protein G (Invitrogen) bound to mouse IgG (Abcam #131368) for 1 hour at 4° C. with rotation. FLAG-tagged constructs were then immunoprecipitated with Dynabeads Protein G beads coupled to mouse anti-FLAG M2 mAb (Sigma F3165) for 3 hours at 4° C. with rotation. Beads were washed 3× with 1 mL IP buffer and eluted by adding 2× NuPage LDS Sample Buffer (Thermo Fisher, diluted from 4× with PBS) to the beads and heating for 10 minutes at 70° C.
Antibodies against STAT1 [EPR4407] (ab109320), pSTAT1 Y701 [M135] (ab29045), pSTAT1 S727 [EPR3146] (ab109461), YBX1 [EP2708Y] (ab76149), PABPC1 (ab21060), hnRNPM [EPR13509 (B)] (ab177957), PRKDC [Y393] (ab32566), and HSP90AB1 [EPR16621] (ab203085) were purchased from Abcam. Antibodies against FLAG tag [M2] (F1804) and [M2] (F3146) were purchased from Sigma Aldrich. Antibodies against DDX3X [D19B4] (8192S), hnRNPK [R332] (4675S), TRIM28 [C42G12] (4124S), PPP2R1A [81G5] (2041S), NCL [D4C70] (14574S), and MYC tag [71D10] (2278S), and IDO1 [D5J4E] (86630S) were purchased from Cell Signaling Technology. Antibodies against hnRNPU (14599-1-AP), CDK4 (11026-1-AP), and HAT1 (11432-1-AP) were purchased from ProteinTech. The antibody against HSPA8 [SR39-04] (PIMA532002) was purchased from ThermoFisher. The antibody against DUX4 (P2G4) was described previously (Geng et al., 2011, Immunodetection of human double homeobox 4. Hybridoma (Larchmt) 30, 125-130). The antibodies Goat anti-Rabbit IgG HRP (ThermoFisher, A27036) and Rat anti-Mouse IgG HRP for IP (Abcam, ab131368) were used as secondary antibodies against rabbit and mouse primary antibodies for western blotting.

“DUX4: human DUX4 protein SEQ ID NO:3 expressed from doxycycline inducible codon altered transgene SEQ ID NO:2” was tested, and the “suppression of IFNG-induced immunoproteasome subunit protein, pulsed protocol” value [1] was “completely blocked; also recorded: elicited the same degree of suppression when assayed forty-four hours later; also recorded: completely block protein accumulation of PSMB9 and PSMB10”, the “suppression of IFNG-induced immunoproteasome subunit protein, pulsed protocol” value ([1]; listed as wildtype DUX4) was “suppressed MHC-I and immunoproteasome subunits” and the “suppression of IFNG-induced immunoproteasome subunit protein, continuous protocol” value [1] was “completely blocked; also recorded: IFNG-induction of MHC-I and the immunoproteasome was suppressed; also recorded: completely block protein accumulation of PSMB9 and PSMB10”. The “suppression of IFNG-induced immunoproteasome subunit protein, continuous protocol” value ([1]; listed as wildtype DUX4) was “suppressed IFNG-induced MHC-I and the immunoproteasome expression”, the “suppression of PSMB9 in PKR knockout background” value ([1]; MB135iDUX4 WT and PKR-KO cells, continuous or pulsed) was “evident in both wild-type (WT) and PKR-KO cells” and the “suppression of IFNG-induced MHC class I protein, pulsed protocol” value [2] was “more profound suppression of the MHC class I proteins; also recorded: even more effectively in the pulsed protocol; also recorded: elicited the same degree of suppression when assayed forty-four hours later; also recorded: suppressed HLA-A/B/C proteins even a day later”. For the same substance, the “suppression of IFNG-induced MHC class I protein, pulsed protocol” value ([2]; listed as full-length DUX4) was “suppresses MHC class I expression as well, or slightly better, in the pulsed protocol than in the continuous protocol”, the “suppression of IFNG-induced MHC class I protein, pulsed protocol” value ([2]; listed as wildtype DUX4) was “suppressed MHC-I and immunoproteasome subunits” and the “suppression of IFNG-induced MHC class I protein, continuous protocol” value [2] was “modest suppression of MHC class I protein; also recorded: suppresses MHC class I proteins; also recorded: IFNG-induction of MHC-I and the immunoproteasome was suppressed; also recorded: MHC class I induction, but not HLA-E is blocked”. The “suppression of IFNG-induced MHC class I protein, continuous protocol” value ([2]; listed as full-length DUX4) was “suppress the IFNG induction of MHC class I expression”, the “suppression of IFNG-induced MHC class I protein, continuous protocol” value ([2]; listed as wildtype DUX4) was “suppressed IFNG-induced MHC-I and the immunoproteasome expression” and the “nascent protein synthesis by HPG labeling” value [3] was “dramatic reduction in HPG-labeled peptides; also recorded: peak suppression occurred forty-four hours after a pulse of DUX4; also recorded: HPG signal largely recovered by ninety-two hours”.
For “longCTD: 3×FLAG tag and nls in frame with carboxyterminal 271 amino acids of DUX4 (aa154-424), SEQ ID NOS: 8-9”, the “co-immunoprecipitation with STAT1 / phosphorylated STAT1” value (STAT1; listed as DUX4-CTD) was “phosphorylation at Y701 is necessary for enhanced interaction; also recorded: preferentially interacts with pSTAT1-Y701”, the “co-immunoprecipitation with STAT1 / phosphorylated STAT1” value (STAT1; listed as DUX4 CTD) was “showed stronger interaction with phosphorylated STAT1” and the “co-immunoprecipitation with STAT1 / phosphorylated STAT1” value (STAT1; listed as DUX4 longCTD) was “both show binding to STAT1; also recorded: STAT1 is associated”.
